Test results from article PMC5218480 (PLoS ONE, 2017).

Tested on: MV-4-11 cells
Assay: Gene expression microarray analysis (Affymetrix PrimeView) and GSEA
Assay type: cell-based, human
Parameters: RFU PODN (11730768_x_at) / Fold change /veh PODN (11730768_x_at) / RFU LINC00158 (11744669_a_at) / Fold change /veh LINC00158 (11744669_a_at) / RFU DUSP10 (11751237_a_at) / Fold change /veh DUSP10 (11751237_a_at) / RFU ID3 (11757404_x_at) / Fold change /veh ID3 (11757404_x_at) / RFU PLEKHG5 (11737974_s_at) / Fold change /veh PLEKHG5 (11737974_s_at) / RFU LRRC4B (11730491_at) / Fold change /veh LRRC4B (11730491_at) / RFU GIMAP4 (11747438_a_at) / Fold change /veh GIMAP4 (11747438_a_at) / RFU KRT8 (11758183_x_at) / Fold change /veh KRT8 (11758183_x_at) / RFU CNN1 (11734310_a_at) / Fold change /veh CNN1 (11734310_a_at) / RFU VPS37D (11726825_at) / Fold change /veh VPS37D (11726825_at) / RFU C10orf10 (11716522_x_at) / Fold change /veh C10orf10 (11716522_x_at) / RFU KIR2DL2 /// KIR2DL4 /// KIR2DL5A /// KIR2DL5B /// KIR2DS1 /// KIR2DS2 /// KIR2DS3 /// KIR2DS4 /// KIR3DL3 /// KIR3DL3 /// KIR3DS1 (11738374_at) / Fold change /veh KIR2DL2 /// KIR2DL4 /// KIR2DL5A /// KIR2DL5B /// KIR2DS1 /// KIR2DS2 /// KIR2DS3 /// KIR2DS4 /// KIR3DL3 /// KIR3DL3 /// KIR3DS1 (11738374_at) / RFU C1QL1 (11718748_at) / Fold change /veh C1QL1 (11718748_at) / RFU TMPRSS4 (11747572_a_at) / Fold change /veh TMPRSS4 (11747572_a_at) / RFU HAMP (11756126_x_at) / Fold change /veh HAMP (11756126_x_at) / RFU RNFT2 (11725882_a_at) / Fold change /veh RNFT2 (11725882_a_at) / RFU NR4A2 (11747474_a_at) / Fold change /veh NR4A2 (11747474_a_at) / RFU ABCC12 (11746883_a_at) / Fold change /veh ABCC12 (11746883_a_at) / RFU TMEM136 (11760407_x_at) / Fold change /veh TMEM136 (11760407_x_at) / RFU CLDN22 /// WWC2 (11732394_at) / Fold change /veh CLDN22 /// WWC2 (11732394_at) / RFU HLA-DPB1 (11760878_x_at) / Fold change /veh HLA-DPB1 (11760878_x_at) / RFU SPINT1 (11716480_a_at) / Fold change /veh SPINT1 (11716480_a_at) / RFU GAP43 (11754022_s_at) / Fold change /veh GAP43 (11754022_s_at) / RFU A4GNT (11735810_at) / Fold change /veh A4GNT (11735810_at) / RFU PRB3 (11715151_x_at) / Fold change /veh PRB3 (11715151_x_at) / RFU TUBB4B (11761932_at) / Fold change /veh TUBB4B (11761932_at) / RFU CAPN14 (11732068_a_at) / Fold change /veh CAPN14 (11732068_a_at) / RFU TMCC2 (11721928_a_at) / Fold change /veh TMCC2 (11721928_a_at) / RFU IRGQ (11745062_a_at) / Fold change /veh IRGQ (11745062_a_at) / RFU FAM174B (11720279_a_at) / Fold change /veh FAM174B (11720279_a_at) / RFU TMPRSS4 (11748680_a_at) / Fold change /veh TMPRSS4 (11748680_a_at) / RFU FAM212B (11763350_a_at) / Fold change /veh FAM212B (11763350_a_at) / RFU PLEKHG5 (11743358_a_at) / Fold change /veh PLEKHG5 (11743358_a_at) / RFU ZSCAN30 (11745921_a_at) / Fold change /veh ZSCAN30 (11745921_a_at) / RFU CMKLR1 (11741424_a_at) / Fold change /veh CMKLR1 (11741424_a_at) / RFU LOC101060620 /// MAPK8IP1 (11723275_at) / Fold change /veh LOC101060620 /// MAPK8IP1 (11723275_at) / RFU SPTSSB (11747773_x_at) / Fold change /veh SPTSSB (11747773_x_at) / RFU PRSS12 (11739890_at) / Fold change /veh PRSS12 (11739890_at) / RFU BIN1 (11741810_x_at) / Fold change /veh BIN1 (11741810_x_at) / RFU WNT11 (11732464_a_at) / Fold change /veh WNT11 (11732464_a_at) / RFU C10orf10 (11716521_a_at) / Fold change /veh C10orf10 (11716521_a_at) / RFU C5orf56 (11738089_at) / Fold change /veh C5orf56 (11738089_at) / RFU CYB561 (11721691_x_at) / Fold change /veh CYB561 (11721691_x_at) / RFU ANKRD19P (11752326_a_at) / Fold change /veh ANKRD19P (11752326_a_at) / RFU OR2T12 /// OR2T33 /// OR2T8 (11738714_s_at) / Fold change /veh OR2T12 /// OR2T33 /// OR2T8 (11738714_s_at) / RFU VCAN (11748164_a_at) / Fold change /veh VCAN (11748164_a_at) / RFU JSRP1 (11732532_at) / Fold change /veh JSRP1 (11732532_at) / RFU KRTAP10-11 (11738290_x_at) / Fold change /veh KRTAP10-11 (11738290_x_at) / RFU MYO3A (11730013_a_at) / Fold change /veh MYO3A (11730013_a_at) / RFU EBF3 (11725865_a_at) / Fold change /veh EBF3 (11725865_a_at) / RFU CAMK2N1 (11719241_x_at) / Fold change /veh CAMK2N1 (11719241_x_at) / RFU C5orf56 (11738088_a_at) / Fold change /veh C5orf56 (11738088_a_at) / RFU OLFML3 (11715873_a_at) / Fold change /veh OLFML3 (11715873_a_at) / RFU LOC100653217 /// NTM (11731650_a_at) / Fold change /veh LOC100653217 /// NTM (11731650_a_at) / RFU MAPK11 (11762145_a_at) / Fold change /veh MAPK11 (11762145_a_at) / RFU FIZ1 (11724087_x_at) / Fold change /veh FIZ1 (11724087_x_at) / RFU OASL (11726364_x_at) / Fold change /veh OASL (11726364_x_at) / RFU SOX15 (11748057_x_at) / Fold change /veh SOX15 (11748057_x_at) / RFU CD79A (11719716_a_at) / Fold change /veh CD79A (11719716_a_at) / RFU HIST1H1D (11736915_at) / Fold change /veh HIST1H1D (11736915_at) / RFU CASKIN2 (11723855_a_at) / Fold change /veh CASKIN2 (11723855_a_at) / RFU LOC730098 (11760151_x_at) / Fold change /veh LOC730098 (11760151_x_at) / RFU OR4N2 (11742367_at) / Fold change /veh OR4N2 (11742367_at) / RFU PRRT2 (11749266_a_at) / Fold change /veh PRRT2 (11749266_a_at) / RFU SNX32 (11753110_a_at) / Fold change /veh SNX32 (11753110_a_at) / RFU CDHR5 (11726645_a_at) / Fold change /veh CDHR5 (11726645_a_at) / RFU RCAN1 (11760418_a_at) / Fold change /veh RCAN1 (11760418_a_at) / RFU FAM167A (11723789_a_at) / Fold change /veh FAM167A (11723789_a_at) / RFU FAM26E (11764081_at) / Fold change /veh FAM26E (11764081_at) / RFU ISYNA1 (11749810_s_at) / Fold change /veh ISYNA1 (11749810_s_at) / RFU ACY1 (11761880_at) / Fold change /veh ACY1 (11761880_at) / RFU 11764098_at / Fold change /veh 11764098_at / RFU SAMD14 (11745864_x_at) / Fold change /veh SAMD14 (11745864_x_at) / RFU NPB (11741838_a_at) / Fold change /veh NPB (11741838_a_at) / RFU TMPRSS6 (11731388_a_at) / Fold change /veh TMPRSS6 (11731388_a_at) / RFU KRTAP10-2 (11738614_at) / Fold change /veh KRTAP10-2 (11738614_at) / RFU ARHGAP8 /// PRR5-ARHGAP8 (11727945_x_at) / Fold change /veh ARHGAP8 /// PRR5-ARHGAP8 (11727945_x_at) / RFU KRTAP5-7 /// NADSYN1 (11734609_at) / Fold change /veh KRTAP5-7 /// NADSYN1 (11734609_at) / RFU RASL12 (11751679_a_at) / Fold change /veh RASL12 (11751679_a_at) / RFU CDKN2B (11736163_a_at) / Fold change /veh CDKN2B (11736163_a_at) / RFU PRF1 (11729649_at) / Fold change /veh PRF1 (11729649_at) / RFU, ZNF638 /// ZNF638-IT1 / Fold change vs veh, ZNF638 /// ZNF638-IT1 / RFU, PANK3 / Fold change vs veh, PANK3 / RFU, SH3YL1 / Fold change vs veh, SH3YL1 / RFU, ZEB2 / Fold change vs veh, ZEB2 / RFU, NRIP1 / Fold change vs veh, NRIP1 / RFU, PTTG1IP / Fold change vs veh, PTTG1IP / RFU, CAPN2 / Fold change vs veh, CAPN2 / RFU, MED14 / Fold change vs veh, MED14 / RFU, SNORA58 / Fold change vs veh, SNORA58 / RFU, C1orf63 / Fold change vs veh, C1orf63 / RFU, LRRFIP1 / Fold change vs veh, LRRFIP1 / RFU, NDUFAF7 / Fold change vs veh, NDUFAF7 / RFU, SLC12A2 / Fold change vs veh, SLC12A2 / RFU, IBTK / Fold change vs veh, IBTK / RFU, ESF1 / Fold change vs veh, ESF1 / Fold change vs veh, TMEM50B / RFU, TAOK1 / Fold change vs veh, TAOK1 / RFU, ACBD3 / Fold change vs veh, ACBD3 / RFU, TMA16 / Fold change vs veh, TMA16 / RFU, RWDD3 / Fold change vs veh, RWDD3 / RFU, BCAT1 / Fold change vs veh, BCAT1 / RFU, EDEM3 / Fold change vs veh, EDEM3 / RFU, TMEM33 / Fold change vs veh, TMEM33 / RFU, WDR75 / Fold change vs veh, WDR75 / RFU, AHCTF1 / Fold change vs veh, AHCTF1 / RFU, TFRC / Fold change vs veh, TFRC / RFU, ZDHHC17 / Fold change vs veh, ZDHHC17 / RFU, NOM1 / Fold change vs veh, NOM1 / RFU, ARL8B / Fold change vs veh, ARL8B / RFU, ZBTB11 / Fold change vs veh, ZBTB11 / RFU, TAMM41 / Fold change vs veh, TAMM41 / RFU, KIAA1704 /// LOC100996395 / Fold change vs veh, KIAA1704 /// LOC100996395 / RFU, ING1 / Fold change vs veh, ING1 / RFU, TRMT61B / Fold change vs veh, TRMT61B / RFU, FUBP3 / Fold change vs veh, FUBP3 / RFU, TP53 / Fold change vs veh, TP53 / RFU, TNKS2 / Fold change vs veh, TNKS2 / RFU, ZFP14 / Fold change vs veh, ZFP14 / RFU, ACTR2 / Fold change vs veh, ACTR2 / RFU, PPP3R1 / Fold change vs veh, PPP3R1 / RFU, PIK3R1 / Fold change vs veh, PIK3R1 / RFU, HNRNPA1 / Fold change vs veh, HNRNPA1 / RFU, RNF170 / Fold change vs veh, RNF170 / RFU, ZNF28 / Fold change vs veh, ZNF28 / RFU, RNGTT / Fold change vs veh, RNGTT / RFU, OGT / Fold change vs veh, OGT / RFU, BRD1 / Fold change vs veh, BRD1 / RFU, MARS / Fold change vs veh, MARS / RFU, ZNF655 / Fold change vs veh, ZNF655 / RFU, FAHD1 / Fold change vs veh, FAHD1 / RFU, BDP1 / Fold change vs veh, BDP1 / RFU, LRRCC1 / Fold change vs veh, LRRCC1 / RFU, ARID1A / Fold change vs veh, ARID1A / RFU, ZNF146 / Fold change vs veh, ZNF146 / RFU, ZNF330 / Fold change vs veh, ZNF330 / RFU, GPN3 / Fold change vs veh, GPN3 / RFU, C9orf123 / Fold change vs veh, C9orf123 / RFU, N4BP2L2 / Fold change vs veh, N4BP2L2 / RFU, ARFIP1 / Fold change vs veh, ARFIP1 / RFU, FAM179B / Fold change vs veh, FAM179B / RFU, BCL10 / Fold change vs veh, BCL10 / RFU, UHRF1BP1L / Fold change vs veh, UHRF1BP1L / RFU, BET1 / Fold change vs veh, BET1 / RFU, CNOT2 / Fold change vs veh, CNOT2 / RFU, ZNF268 / Fold change vs veh, ZNF268 / Fold change vs veh, ZNF507 / RFU, DGCR2 / Fold change vs veh, DGCR2 / RFU, WDSUB1 / Fold change vs veh, WDSUB1 / Fold change vs veh, HSP90B1 /// MIR3652 / RFU, ADSS / Fold change vs veh, ADSS / RFU, GK / Fold change vs veh, GK / RFU, ZNF148 / Fold change vs veh, ZNF148 / RFU, TAF9 / Fold change vs veh, TAF9 / RFU, SLC1A5 / Fold change vs veh, SLC1A5 / RFU, SLMO2 / Fold change vs veh, SLMO2 / RFU, ABCC4 / Fold change vs veh, ABCC4 / RFU, LOC101060439 /// RAP1B / Fold change vs veh, LOC101060439 /// RAP1B / RFU, RFX7 / Fold change vs veh, RFX7 / RFU, GTPBP10 / Fold change vs veh, GTPBP10 / RFU, CNEP1R1 / Fold change vs veh, CNEP1R1 / RFU, BIVM-ERCC5 /// ERCC5 / Fold change vs veh, BIVM-ERCC5 /// ERCC5 / RFU, ILF3 / Fold change vs veh, ILF3 / RFU 11762660_at / Fold change /veh 11762660_at / RFU VCAN (11757783_s_at) / Fold change /veh VCAN (11757783_s_at) / RFU DDX43 (11728927_at) / Fold change /veh DDX43 (11728927_at) / RFU KRT8 (11758188_x_at) / Fold change /veh KRT8 (11758188_x_at) / RFU NKD1 (11759106_at) / Fold change /veh NKD1 (11759106_at) / RFU SRD5A1 (11742802_a_at) / Fold change /veh SRD5A1 (11742802_a_at) / RFU TPSAB1 /// TPSB2 (11721975_s_at) / Fold change /veh TPSAB1 /// TPSB2 (11721975_s_at) / RFU GSTM3 (11746129_a_at) / Fold change /veh GSTM3 (11746129_a_at) / RFU IL23R (11737362_x_at) / Fold change /veh IL23R (11737362_x_at) / RFU TMEM51 (11727254_a_at) / Fold change /veh TMEM51 (11727254_a_at) / RFU PIWIL2 (11732686_x_at) / Fold change /veh PIWIL2 (11732686_x_at) / RFU ORM1 (11744905_x_at) / Fold change /veh ORM1 (11744905_x_at) / RFU CCDC152 (11743942_at) / Fold change /veh CCDC152 (11743942_at) / RFU ECM1 (11717891_a_at) / Fold change /veh ECM1 (11717891_a_at) / RFU IL23R (11748794_a_at) / Fold change /veh IL23R (11748794_a_at) / RFU TNFAIP8L3 (11732012_x_at) / Fold change /veh TNFAIP8L3 (11732012_x_at) / RFU MBOAT4 (11741988_at) / Fold change /veh MBOAT4 (11741988_at) / RFU 11764193_at / Fold change /veh 11764193_at / RFU TMEM53 (11763286_at) / Fold change /veh TMEM53 (11763286_at) / RFU MAGEB2 (11727129_at) / Fold change /veh MAGEB2 (11727129_at) / RFU TMEM200A (11744735_a_at) / Fold change /veh TMEM200A (11744735_a_at) / RFU CCDC152 (11751479_a_at) / Fold change /veh CCDC152 (11751479_a_at) / RFU FAM211A (11726209_a_at) / Fold change /veh FAM211A (11726209_a_at) / RFU RGS16 (11746705_a_at) / Fold change /veh RGS16 (11746705_a_at) / RFU VCAN (11755009_s_at) / Fold change /veh VCAN (11755009_s_at) / RFU RHOB (11743442_s_at) / Fold change /veh RHOB (11743442_s_at) / RFU RGS16 (11720943_a_at) / Fold change /veh RGS16 (11720943_a_at) / RFU RGS16 (11720944_at) / Fold change /veh RGS16 (11720944_at) / RFU, VPS4B / Fold change vs veh, VPS4B / RFU, CREB1 / Fold change vs veh, CREB1 / RFU, DNAJC13 / Fold change vs veh, DNAJC13 / RFU, GNAQ / Fold change vs veh, GNAQ / RFU, CDK5R1 / Fold change vs veh, CDK5R1 / RFU, ZRANB3 / Fold change vs veh, ZRANB3 / RFU, CUL4A / Fold change vs veh, CUL4A / RFU, CCNY / Fold change vs veh, CCNY / RFU, UFL1 / Fold change vs veh, UFL1 / RFU, COG3 / Fold change vs veh, COG3 / RFU, DIAPH2 / Fold change vs veh, DIAPH2 / RFU, SKA2 / Fold change vs veh, SKA2 / RFU, AFF3 / Fold change vs veh, AFF3 / RFU, LMF1 / Fold change vs veh, LMF1 / RFU, IPO11 / Fold change vs veh, IPO11 / RFU, DFFB / Fold change vs veh, DFFB / RFU, FOXP1 / Fold change vs veh, FOXP1 / RFU, CARD8 / Fold change vs veh, CARD8 / RFU, STRN3 / Fold change vs veh, STRN3 / RFU, ADK / Fold change vs veh, ADK / RFU, RASSF2 / Fold change vs veh, RASSF2 / RFU, WIPF1 / Fold change vs veh, WIPF1 / RFU, LARP1B / Fold change vs veh, LARP1B / RFU, RASA1 / Fold change vs veh, RASA1 / RFU, RB1 / Fold change vs veh, RB1 / RFU, PPFIA1 / Fold change vs veh, PPFIA1 / RFU, MAT2A / Fold change vs veh, MAT2A / RFU, CCT5 / Fold change vs veh, CCT5 / RFU, WDR92 / Fold change vs veh, WDR92 / RFU, CUX1 / Fold change vs veh, CUX1 / RFU, TTC7A / Fold change vs veh, TTC7A / RFU, TMEM135 / Fold change vs veh, TMEM135 / RFU, DEPTOR / Fold change vs veh, DEPTOR / RFU, CPM / Fold change vs veh, CPM / RFU, DNAJB6 / Fold change vs veh, DNAJB6 / RFU, CACNA2D3 / Fold change vs veh, CACNA2D3 / RFU, DTX4 / Fold change vs veh, DTX4 / RFU, TFCP2 / Fold change vs veh, TFCP2 / RFU, GMCL1 /// GMCL1P1 / Fold change vs veh, GMCL1 /// GMCL1P1 / RFU, AEBP2 / Fold change vs veh, AEBP2 / RFU, SNHG1 /// SNORD22 /// SNORD25 /// SNORD26 /// SNORD27 /// SNORD28 /// SNORD29 /// SNORD31 / Fold change vs veh, SNHG1 /// SNORD22 /// SNORD25 /// SNORD26 /// SNORD27 /// SNORD28 /// SNORD29 /// SNORD31 / Fold change (Aza/veh), C12orf56 (ProbeSet 11735607_a_at) / Fold change (ACY-1035/veh), C12orf56 (ProbeSet 11735607_a_at) / Fold change (Aza/veh), FGFR1OP (ProbeSet 11751329_s_at) / Fold change (ACY-1035/veh), FGFR1OP (ProbeSet 11751329_s_at) / Fold change (Aza/veh), VPS36 (ProbeSet 11739960_a_at) / Fold change (ACY-1035/veh), VPS36 (ProbeSet 11739960_a_at) / RFU SYPL1 (11715823_x_at) / Fold change /veh SYPL1 (11715823_x_at) / RFU IGFBP7 (11715501_s_at) / Fold change /veh IGFBP7 (11715501_s_at) / RFU REEP3 (11722064_at) / Fold change /veh REEP3 (11722064_at) / RFU IGLL1 (11728026_x_at) / Fold change /veh IGLL1 (11728026_x_at): dose or concentration left out as unconfirmed
Details: ProbeSet 11717702_a_at; LIST D

Question: `Nc1ncn([C@@H]2O[C@H](CO)[C@@H](O)[C@H]2O)c(=O)n1` [azacitidine] was tested. Which “RFU, RB1” value did it give?
Answer: The value was 184.53 RFU.
